Assay results: ChEMBL document CHEMBL4229562, “Introduction of a Methyl Group Curbs Metabolism of Pyrido[3,4- d]pyrimidine Monopolar Spindle 1 (MPS1) Inhibitors and Enables the Discovery of the Phase 1 Clinical Candidate N2-(2-Ethoxy-4-(4-methyl-4 H-1,2,4-triazol-3-yl)phenyl)-6-methyl- N8-neopentylpyrido[3,4- d]pyrimidine-2,8-diamine …” (J Med Chem, 2018); call rule not given here
Converted amounts (≈) assume the structure as drawn.

Assays:
[1] = molecular target: T1, Dual specificity protein kinase TTK (Homo sapiens, UniProt P33981)
T1 sequence (P33981 whole entry): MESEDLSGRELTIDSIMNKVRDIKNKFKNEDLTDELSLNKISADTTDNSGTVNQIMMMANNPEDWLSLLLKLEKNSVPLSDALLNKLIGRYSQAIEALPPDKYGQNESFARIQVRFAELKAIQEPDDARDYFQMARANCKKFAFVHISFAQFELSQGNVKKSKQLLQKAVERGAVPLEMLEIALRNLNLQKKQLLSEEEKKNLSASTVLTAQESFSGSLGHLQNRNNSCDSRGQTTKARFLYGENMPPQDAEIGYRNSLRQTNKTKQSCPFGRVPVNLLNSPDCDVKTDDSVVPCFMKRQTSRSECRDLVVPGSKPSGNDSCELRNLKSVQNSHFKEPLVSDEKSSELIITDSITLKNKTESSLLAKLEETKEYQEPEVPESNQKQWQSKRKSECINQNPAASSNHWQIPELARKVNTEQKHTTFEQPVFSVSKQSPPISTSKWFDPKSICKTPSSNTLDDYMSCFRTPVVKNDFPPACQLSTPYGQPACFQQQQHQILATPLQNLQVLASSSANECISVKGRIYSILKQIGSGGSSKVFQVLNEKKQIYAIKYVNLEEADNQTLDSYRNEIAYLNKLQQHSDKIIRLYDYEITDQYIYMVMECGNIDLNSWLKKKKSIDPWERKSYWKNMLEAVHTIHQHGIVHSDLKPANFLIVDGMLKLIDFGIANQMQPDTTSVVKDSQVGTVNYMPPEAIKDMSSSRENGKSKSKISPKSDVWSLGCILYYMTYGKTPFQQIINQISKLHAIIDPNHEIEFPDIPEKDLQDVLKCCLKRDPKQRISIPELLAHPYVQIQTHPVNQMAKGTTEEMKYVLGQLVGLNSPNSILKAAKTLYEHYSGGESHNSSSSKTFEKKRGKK
Description: Inhibition of MPS1 autophosphorylation at Thr33/Ser37 in human HCT116 cells after 2 hrs by MSD assay

[2] = molecular target: T1, Dual specificity protein kinase TTK; remark: listed apart in the source
Description: Inhibition of full length human N-terminal 6xHis-tagged MPS1 expressed in baculovirus expression system using 5FAM-H236 peptide as substrate after 60 to 90 mins by caliper assay

[3] = Intrinsic clearance in human liver microsomes assessed per mg protein at 1 uM preincubated for 10 mins followed NADPH/UDP-glucuronic acid addition and measured after 30 mins by LC-MS/MS analysis; type: ADME, microsome; settings: 0.5 h
CDK2/Cyclin A2 = CDK2/Cyclin A2 (Homo sapiens, UniProt P24941)
[4] = Intrinsic clearance in CD1 mouse liver microsomes assessed per mg protein at 1 uM preincubated for 10 mins followed NADPH/UDP-glucuronic acid addition and measured after 30 mins by LC-MS/MS analysis; type: ADME, microsome; settings: 0.5 h
[5] = Drug metabolism in human liver microsomes assessed as 5-(3-methoxy-4-(8-(neopentylamino)pyrido[3,4-d]pyrimidin-2-ylamino)phenyl)-4-methyl-4H-1,2,4-triazol-3-ol formation at 1 uM preincubated for 10 mins followed NADPH/UDP-glucuronic acid addition and measured after 30 mins by LC-MS/MS analysis; type: ADME, microsome; settings: 0.5 h
[6] = Lipophilicity, log P of the compound; type: physicochemical; settings: octanol/water
[7] = Drug level in human liver microsomes treated with 1 uM N2-(2-Methoxy-4-(4-methyl-4H-1,2,4-triazol-3-yl)phenyl)-6-methyl-N8-neopentylpyrido[3,4-d]pyrimidine-2,8-diamine assessed as compound formation preincubated for 10 mins followed NADPH/UDP-glucuronic acid addition and measured after 30 mins by LC-MS/MS analysis; type: ADME, microsome; settings: 0.5 h
[8] = Drug level in human liver microsomes treated with 1 uM N2-(2-Methoxy-4-(4-methyl-4H-1,2,4-triazol-3-yl)phenyl)-N8-neopentylpyrido[3,4-d]pyrimidine-2,8-diamine assessed as compound formation preincubated for 10 mins followed NADPH/UDP-glucuronic acid addition and measured after 30 mins by LC-MS/MS analysis; type: ADME, microsome; settings: 0.5 h
[9] = Protein binding in mouse plasma; type: ADME, cell-free
[10] = Cmax in mouse at 5 mg/kg, po by ESI-LCMS/MS analysis; type: ADME, organism-based; parameters: dose 5 mg/kg, route oral; settings: in vivo
[11] = Cmax in rat at 5 mg/kg, po by ESI-LCMS/MS analysis; type: ADME, organism-based; parameters: dose 5 mg/kg, route oral; settings: in vivo
Mus musculus [12] = test: Oral bioavailability in mouse at 5 mg/kg by ESI-LCMS/MS analysis; type: ADME, organism-based; settings: in vivo
[13] = Plasma concentration in doxycycline-inducible human DLD-1 cell xenografted mouse model at 25 mg/kg, po administered as single dose and measured after 24 hrs post dose by LC/MS analysis; type: ADME, organism-based
[14] = AUClast in rat at 5 mg/kg, po measured after 6 hrs by ESI-LCMS/MS analysis; type: ADME, organism-based; settings: in vivo
[15] = AUClast in mouse at 5 mg/kg, po measured after 6 hrs by ESI-LCMS/MS analysis; type: ADME, organism-based; settings: in vivo
[16] = Volume of distribution at steady state in rat at 5 mg/kg, iv by ESI-LCMS/MS analysis; type: ADME, organism-based; settings: in vivo, read-out: Vdss
Mus musculus [17] = test: Half life in mouse at 5 mg/kg, iv by ESI-LCMS/MS analysis; type: ADME, organism-based; settings: in vivo
[18] = Solubility of the compound in PBS buffer at pH 7.4 by HPLC analysis; type: physicochemical
Rattus norvegicus [19] = test: Oral bioavailability in rat at 5 mg/kg by ESI-LCMS/MS analysis; type: ADME, organism-based; settings: in vivo
Rattus norvegicus [20] = test: Half life in rat at 5 mg/kg, iv by ESI-LCMS/MS analysis; type: ADME, organism-based; settings: in vivo
[21] = Clearance in mouse at 5 mg/kg, iv by ESI-LCMS/MS analysis; type: ADME, organism-based; settings: in vivo
[22] = Clearance in rat at 5 mg/kg, iv by ESI-LCMS/MS analysis; type: ADME, organism-based; settings: in vivo
[23] = Volume of distribution at steady state in mouse at 5 mg/kg, iv by ESI-LCMS/MS analysis; type: ADME, organism-based; settings: in vivo, read-out: Vdss
[24] = AUClast in rat at 5 mg/kg, po measured after 24 hrs by ESI-LCMS/MS analysis; type: ADME, organism-based; settings: in vivo

**Q.** For COc1cc(-c2nncn2C)ccc1Nc1ncc2ccnc(NCC(C)(C)C)c2n1, which IC50 [1] is on record?
**A.** 3.5 nM

**Q.** What about the Ki [2] of the same compound?
**A.** ≤ 0.07 nM

**Q.** And the CLH [3]?
**A.** 92.1 µL/min/mg

**Q.** And the IC50 (CDK2/Cyclin A2)?
**A.** 16 nM

**Q.** And the Ki (CDK2/Cyclin A2)?
**A.** 8 nM

**Q.** What about the CLH [4] of the same compound?
**A.** 81.5 µL/min/mg

**Q.** And the Drug metabolism [5]?
**A.** Metabolite_Detected

**Q.** And the logP [6]?
**A.** 3.6

**Q.** For COc1cc(-c2nncn2C)ccc1Nc1ncc2cc(C)nc(NC(O)C(C)(C)C)c2n1 (stereo not given), which Drug uptake [7] is on record?
**A.** Active

**Q.** For COc1cc(-c2nnc(O)n2C)ccc1Nc1ncc2ccnc(NCC(C)(C)C)c2n1, which Drug uptake [8] is on record?
**A.** Active

**Q.** Which results are given for CCOc1cc(-c2nncn2C)ccc1Nc1ncc2cc(C)nc(N3CC4(CCOCC4)C3)c2n1?
**A.** PPB [9]: 98.09%; Cmax [10]: 3080 nM; Cmax [11]: 1180 nM; F (Mus musculus [12]): 63%; concentration at 24 h [13]: < 10 nM; AUC(0-t) at 6 h [14]: 5.16 µM·h; AUC(0-t) at 6 h [15]: 4.78 µM·h; IC50 [1]: 37 nM; Vd [16]: 0.89 L/kg; t1/2 (Mus musculus [17]): 0.66 h; solubility [18]: 56.2 µM (≈ 27.3 µg/mL); F (Rattus norvegicus [19]): 22%; IC50 [2]: 11 nM; Ki [2]: 0.11 nM; CLH [3]: 9.4 µL/min/mg; IC50 (CDK2/Cyclin A2): 2500 nM; Ki (CDK2/Cyclin A2): 1300 nM; CLH [4]: 32.9 µL/min/mg; t1/2 (Rattus norvegicus [20]): 1.5 h; clearance [21]: 22.6 mL/min/kg; clearance [22]: 7.59 mL/min/kg; logP [6]: 3.08; Vd [23]: 1.21 L/kg

**Q.** What does the source list for CCOc1cc(-c2nncn2C)ccc1Nc1ncc2cc(C)nc(N3CC(C)(C)C3)c2n1?
**A.** PPB [9]: 99.28%; Cmax [10]: 2350 nM; Cmax [11]: 1420 nM; F (Mus musculus [12]): 75%; AUC(0-t) at 6 h [15]: 8.11 µM·h; IC50 [1]: 37 nM; Vd [16]: 1.88 L/kg; t1/2 (Mus musculus [17]): 1.58 h; solubility [18]: 31.5 µM (≈ 14 µg/mL); F (Rattus norvegicus [19]): 72%; IC50 [2]: 8.9 nM; Ki [2]: 0.088 nM; CLH [3]: 25.2 µL/min/mg; IC50 (CDK2/Cyclin A2): 1600 nM; Ki (CDK2/Cyclin A2): 810 nM; CLH [4]: 44.3 µL/min/mg; t1/2 (Rattus norvegicus [20]): 3.03 h; clearance [21]: 16.3 mL/min/kg; AUC(0-t) at 24 h [24]: 18.3 µM·h; clearance [22]: 7.35 mL/min/kg; logP [6]: 3.85; Vd [23]: 2.09 L/kg
